Values joined by “and” are separate entries in the source; they are usually repeats but may differ in a detail not shown here. Identical values can stand only once.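 Briefly, cells in 96-well plates were exposed to five compound concentrations for 48 h, and endpoints were estimated by linear interpolation. At the GI50, growth is halved. TGI: total growth inhibition.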 Bounds are passed on as bounds.

Common to all, as to assay: NCI tumour cell line growth inhibition, 48 h
In experiment [1] the test system is NCI-H23 lung.
Experiment [2] concerns HL-60(TB) leukemia.
For experiment [3], the system named is DLD-1 colon.
Experiment [4] relates to SW-620 colon.
The subject of experiment [5] is SNB-75 CNS.
Experiment [6] deals with NCI-H226 lung.
Experiment [7] relates to SK-MEL-2 melanoma.
Experiment [8] relates to OVCAR-3 ovarian.
The subject of experiment [9] is XF 498 CNS.
Experiment [10] concerns BT-549 breast.

As to `O=C(CC1(O)C(=O)Nc2ccccc21)c1cccc(O)c1` (stereo not given), the TGI in experiment [1], in [2], in experiment [3], in experiment [4], in experiment [5] and in [6] was > 100 µM throughout. The TGI in experiment [7], in experiment [8] and in experiment [9] was > 100 µM each time.

On to `CCN(CC)c1ccc(N=Nc2ccc(-c3nc4cccnc4s3)cc2)cc1`, for which the TGI is > 100 µM in [1]; > 100 µM in experiment [2]; > 100 µM in experiment [3]; > 100 µM in experiment [4]; 98.9 µM in experiment [5]; > 100 µM in experiment [6]. Further, the TGI is > 100 µM in experiment [7], > 100 µM in experiment [8] and 72.1 µM in experiment [9].

Consider `O=C1CCNC/C1=C\c1ccccc1`, for which the TGI in experiment [1] is 34.4 µM; in experiment [2] it was 47.7 µM; in experiment [3] it was 48.3 µM; in [4] it was 95.3 µM; in experiment [5] it was > 100 µM; in [6], 60.8 µM. The TGI is > 100 µM in experiment [7], 54.8 µM in experiment [8] and 74.7 µM in experiment [9].

On to `Nc1ncc(CN2CCCC2)c(-c2ccccc2O)n1`, for which the TGI in [1], in experiment [3], in experiment [4], in [5], in experiment [6] and in [8] was > 750 µM throughout. Besides, the TGI in [9] was > 750 µM. Also, the GI50 in experiment [2] was > 750 µM.

Regarding `O=[N+]([O-])c1ccc(N=P(c2ccccc2)(c2ccccc2)c2ccccc2)n2nnnc12`, the TGI was > 100 µM in experiment [1]; > 100 µM in experiment [2]; > 100 µM in experiment [4]; 42.6 µM in experiment [5]; > 100 µM in [7]; > 100 µM in [8]. Also, the TGI in [9] is > 100 µM.

Regarding `COC1=CC(=O)C2(C=C1OC)OC[C@H]1Oc3c(ccc4c3C=CC(C)(C)O4)C(=O)[C@H]12` (stereo not given in full), the TGI in experiment [1] is 95.3 µM; in experiment [2], 44.6 µM; in experiment [3], > 100 µM; in experiment [4], > 100 µM; in [5] it was > 100 µM; in [7], > 100 µM. Also, the TGI in experiment [8] and in experiment [9] was > 100 µM each time.

`CC(=O)OC1(C(C)=O)CC2(c3ccccc3)OC1(c1ccccc1)c1ccccc12` (stereo not given): the TGI in experiment [1] is > 100 µM; in experiment [3], > 100 µM; in experiment [4] it was > 100 µM; in experiment [5], > 100 µM; in [6], 43.2 µM; in [7], 83.2 µM. Moreover, the TGI was > 100 µM in experiment [8] and 33.3 µM in experiment [9].

Regarding `O=C1c2c(c3c4ccccc4n(CC4CO4)c3c3[nH]c4ccccc4c23)C(=O)N1Cc1ccccc1` (stereo not given), the TGI in experiment [1], in experiment [2], in experiment [4], in experiment [6], in experiment [7] and in experiment [8] was > 100 µM in each case. In experiment [9], the TGI was > 100 µM.

In the case of `CCCCCCNC(=O)CCN(C(=O)O)S(=O)(=O)c1ccc(NC(=O)c2ccccc2)cc1`, the TGI is > 100 µM in experiment [1]; > 64.2 µM in experiment [2]; 43.2 µM in experiment [3]; 30.6 µM in experiment [4]; > 100 µM in experiment [5]; > 100 µM in [6]. The TGI in experiment [7], in experiment [8] and in [9] was > 100 µM each time.

On to `COc1ccc(N2C(=O)[C@@H]3[C@@H]4CC(C)CC[C@@H]4c4c([nH]c5ccccc45)[C@@H]3C2=O)cc1` (stereo not given in full), for which the TGI in experiment [1] is > 47.5 µM; in experiment [2], 89.4 µM; in [3] it was > 58.4 µM; in experiment [4], 47.7 µM; in experiment [5], 12.4 µM; in [6], 28.5 µM. For the same compound, the TGI came to 28.5 µM in experiment [7], 37.2 µM in [8] and 26 µM in experiment [9].

For the compound `C=C1C(C)C2C(Cc3ccccc3)NC(=O)C23C(OC(C)=O)C=CC(C)(O)C(=O)C(C)C/C=C/C3C1O` (stereo not given), the GI50 in [1] is 15.6 µM; in experiment [2], 1.61 µM; in experiment [4] it was > 500 µM; in experiment [5], 0.0218 µM and 0.05 µM. Besides, the TGI is 82.2 µM and 259 µM in experiment [1]; 20.5 µM and 15.7 µM in experiment [2]; > 500 µM in [4]; 51.4 µM and > 500 µM in [6]; 74.8 µM in experiment [7]; > 500 µM in experiment [8]. This compound also had a TGI in [9] of 28.5 µM.

On to `COC1=CC(=O)[C@@]2(C)C(C)[C@H](c3ccccc3)[C@H]2C1=O` (stereo not given in full), for which the TGI in experiment [1], in experiment [2], in experiment [3], in experiment [4], in [5] and in experiment [6] was > 100 µM throughout. Moreover, the TGI in experiment [7], in [8] and in experiment [9] was > 100 µM in each case.

Consider `O=C(CC(C(=O)c1ccsc1)c1cccs1)c1cccs1` (stereo not given), for which the TGI in [1], in experiment [2], in [3], in experiment [4], in experiment [5] and in experiment [6] was > 100 µM throughout. The TGI in [7], in experiment [8] and in [9] was > 100 µM in each case.

With `C#Cc1c(C)c(/C=C/C(C)=C\C(=O)OC)n(C)c1C`, the TGI in experiment [1], in [2], in experiment [3], in experiment [4], in experiment [6] and in experiment [8] was > 100 µM each time. Besides, the TGI in experiment [9] was > 100 µM.

In the case of `Cc1[nH]c2c(C)c3c([nH]c4ccc(Cl)cc43)c(C)c2c(=O)c1C`, the TGI is 18.9 µM in [1]; 9.64 µM in experiment [2]; 73.3 µM in experiment [3]; > 100 µM in [4]; > 92.5 µM in experiment [5]; 24.2 µM in [6]. Also, the TGI in experiment [10] is > 100 µM; in experiment [7], > 100 µM; in [8], 18.9 µM; in [9] it was > 100 µM.

As to `CCN(CC)C(=O)Cc1[nH][nH]c(=O)c1C(=O)N(CC)CC`, the TGI in [1], in [2], in experiment [3], in experiment [4], in experiment [5] and in experiment [6] was > 100 µM throughout. The TGI in [7], in experiment [8] and in experiment [9] was > 100 µM in each case.

Turning to `Nc1nc(N)c(CCCCc2ccc([N+](=O)[O-])cc2)c(N)n1`, the TGI in experiment [1], in experiment [2], in experiment [3], in experiment [4], in experiment [5] and in [6] was > 100 µM throughout. Further, the TGI in experiment [10], in [7], in experiment [8] and in experiment [9] was > 100 µM throughout.

With `C=C1C(=O)C23C(O)CC4C(C)(C)CCC(O)C4(C)C2CC(OC(C)=O)C1[C@H]3O` (stereo not given in full), the TGI amounted to 8.38 µM in [1]; 3.53 µM in experiment [2]; 4.65 µM in experiment [3]; 2.53 µM in experiment [4]; 22.7 µM in [5]; 28.1 µM in experiment [6]. The TGI in experiment [7] amounted to 5.3 µM; in experiment [8] it was 19 µM; in experiment [9] it was 3.33 µM.

As for `CCOC(=O)C(Oc1ccc(OC)c2c1C(=O)CCC2)c1ccccc1` (stereo not given), the TGI in [1], in experiment [2], in [3], in experiment [4], in experiment [7] and in experiment [8] was > 100 µM throughout. Besides, in experiment [9], the TGI is > 100 µM.

`O=C1N(c2ccc(Cl)cc2)C(=O)C2(SC=NN2Cc2ccccc2)N1c1ccc(Cl)cc1` (stereo not given): the TGI in experiment [1], in experiment [2], in [3], in experiment [4], in [5] and in experiment [6] was > 100 µM throughout. Also, the figures for the TGI in experiment [8] and in [9] were > 100 µM and 94.4 µM, respectively.

For `COC(=O)CC(=O)OC1C[C@@H]2CCC3C(C)(C)CCC[C@]3(C)C23CC[C@@]1(C)C3` (stereo not given in full), the TGI is 33.5 µM in [1]; > 100 µM in experiment [2]; 34.2 µM in experiment [3]; 32.1 µM in experiment [4]; 51.2 µM in experiment [5]; 46.7 µM in [6]. Besides, the TGI in experiment [8] turned out to be 30.7 µM; in [9] it was 34.4 µM.

`Cc1cc2c3ccccc3n3c2c2c1OC1(C)CCC(C2C1)C3(C)C` (stereo not given): the TGI in experiment [2], in experiment [3], in experiment [4], in experiment [6], in experiment [7] and in experiment [8] was > 25 µM throughout. In experiment [9], the TGI was > 25 µM.

Turning to `CN1C/C(=C\c2ccccc2)C2=NN(C(N)=S)[C@H](c3ccccc3)[C@@H]2C1`, the TGI is > 100 µM in [1]; 54.8 µM in [2]; > 100 µM in experiment [3]; > 100 µM in experiment [4]; > 100 µM in [6]; > 100 µM in experiment [7]. Further, the TGI in experiment [8] and in experiment [9] was > 100 µM each time.
